Data from US20050051179A1, “Simple apparatus for preparing experimental models of brain neuronal damage and preparation of secondary brain damage model with methods for evaluation of drug efficacy of novel compounds against brain damage and memory-related events” (priority 2003, published 2005).

How the values were obtained:
[1] = test system: SBD generated with the drop weight apparatus; test: MRI findings and cerebral blood flow (CBF) velocity after drop-weight impact (240 cm·g); type: in vivo, dog; conditions: dogs
Excerpt: (§1) Eight healthy 4-year-old male Beagle dogs were anesthetized before a square piece of skull (1.2×1.2 cm^2) was craniectomized. As two different cerebral injuries were involved in the study, a unilateral parietal bone was drilled and the brain surface surgically exposed without removing the dura mater. In two randomized dogs, a self-designed 5-mm spherical DCN with reproducibility was applied to generate concussion (CC in Table 1). In the remaining four dogs, the WD method was employed under the following experimental conditions: a weight of 12-g mass with a drop-distance of 20 cm to generate an impact of 240 cm·g.
(§2) MRI findings were performed with superconductor magnetism of magnetic field intensity 0.5T (Flexart MRT-50GP; Toshiba Medical Co., Ltd.). CBF velocities of DCN (n=2) and drop-weight-inflicted (n=4) dogs (including craniectomized skull-replaced dogs) were measured via MRI using the 3D-phase shift magnetic resonance angiography with presaturation pulse (PAMRA: TE=25, TR=10). Craniectomized skull-chips were replaced and kept in position with adhesive.

[2] = test system: pyramidal cells of hippocampal CA3 field; test: Viable pyramidal cell counts per unit area, hippocampal CA3 field, after drop-weight impact; type: in vivo, rat; conditions: rats, 3 mg/kg i.p. before impact
Procedure: (§3) Male Fisher rats weighing 400-450 g were anesthetized with sodium pentobarbital (Nembutal; Dainippon Pharmaceutical Co., Ltd., Osaka) by i.p. administration (40 mg/kg) before the head was restrained in a stereotaxic apparatus. Weight 20 of 5-gram mass positioned at a drop-distance of 10 cm was dropped onto the brain surface under gravitational force to generate an impact of 50 cm·g, causing a head injury. Follow-up studies of the progress of subsequent events from 1 to 48 hours post-impact were monitored with the MRI approach.
Immediately after impact, MRI diagnoses were conducted to categorize animals as (i) no injuries, (ii) no subarachinoid hemorrhage and (iii) external wounds and hemorrhages inflicted on brain surface, etc. Animals having such criteria were omitted from subsequent studies. […]
Along with MRI findings from 1 to 48 hours post-impact, brain injuries were also evaluated histopathologically using the cardioperfusion method with 200 mL of physiological saline (0.9 w/w %) to first remove blood cells followed by fixation with 50 mL of 0.1 MPBS (pH: 7.4) containing 4% paraformaldehyde (PFA). […]
With regard to the therapeutic effects of chemical agents tested, viable pyramidal cell counts per unit area (1 mm^2) of tissues in hippocampal CA1 and CA3 fields were determined to derive the area of tissue damage/injury using image-analysis software (NIH Co., Ltd.; Image Ver. 1.55). […]

[3] = test system: pyramidal cells of hippocampal CA1 field; test: Viable pyramidal cell counts per unit area, hippocampal CA1 field, after drop-weight impact; type: in vivo, rat; conditions: rats, 3 mg/kg i.p. before impact
Procedure: as §3
(§4) Immediately after impact, MRI diagnoses were conducted to categorize animals as (i) no injuries, (ii) no subarachinoid hemorrhage and (iii) external wounds and hemorrhages inflicted on brain surface, etc. Animals having such criteria were omitted from subsequent studies. Animals with confirmed cerebral injuries but without these criteria were divided into groups of six each.
Along with MRI findings from 1 to 48 hours post-impact, brain injuries were also evaluated histopathologically using the cardioperfusion method with 200 mL of physiological saline (0.9 w/w %) to first remove blood cells followed by fixation with 50 mL of 0.1 MPBS (pH: 7.4) containing 4% paraformaldehyde (PFA). Brain tissues were then embedded in paraffin and coronal sections of the brain specimens were sectioned before staining with the hematoxylin-eosin (H&E) reagent.
With regard to the therapeutic effects of chemical agents tested, viable pyramidal cell counts per unit area (1 mm^2) of tissues in hippocampal CA1 and CA3 fields were determined to derive the area of tissue damage/injury using image-analysis software (NIH Co., Ltd.; Image Ver. 1.55). As for the extent of tissue damage, slices with the maximum damage area between two groups were compared.

[4] = test system: SBD derived from experimental head injury; test: MRI diagnosis of cerebral injuries after drop-weight impact (SBD model); type: in vivo, rat; conditions: rats, 3 mg/kg i.p. before impact of 50 cm·g; 1 hr post-impact
Procedure: as §3, §4

[5] = test system: direct contusion nest (DCN) injury; test: MRI findings and cerebral blood flow (CBF) velocity after direct contusion nest (DCN); type: in vivo, dog
Excerpt: as §1, §2

What does the source list for `C[C@]12N[C@H](Cc3ccccc31)c1ccccc12` [MK-801]?
time-related expansion of damage after impact (MRI) ([1]; drop weight group with drug pretreatment, 240 cm·g): not established; SBD development (CBF peak at 3 hr after impact) ([1]; drop-weight-inflicted, drug-pretreated group): effectively suppressed SBD development; viable pyramidal cell counts per unit area, CA3 field, decrease (rate) ([2]; 1 hr post-impact, non-treated 45.9%): 63.0%; viable pyramidal cell counts per unit area, CA3 field, decrease (rate) ([2]; 48 hr post-impact, non-treated 37.6%): 61.2%; suppression of SBD exacerbation (viable cell counts 48 hr vs 1 hr post-impact) [3]: could not completely suppress SBD exacerbation; viable pyramidal cell counts per unit area, CA1 field, decrease compared with the control group ([3]; 1 hr post-impact, non-treated 59.2%): 66.4%; viable pyramidal cell counts per unit area, CA1 field, decrease compared with the control group ([3]; 48 hr post-impact, non-treated 44.5%): 54.8%; T2-weighted high-signal and T1-weighted low-signal areas (MRI) [4]: expanded; CBF after the high values registered immediately after impact ([5]; dogs subjected to DCN, drug-treated group (same as non-treated)): no subsequent changes thereafter; damage field with time (MRI) ([5]; dogs, DCN group with drug pretreatment): damage area had expanded
